Source: patent US9029373B2, “Kinase inhibitors” (Chiesi Farmaceutici S.p.A., priority 2011, dated 2015)
Counter-ions that a name gives are not always drawn.

Experiments:
p38alpha = target: T1, p38alpha (Homo sapiens, UniProt Q16539); experiment: P38alpha enzyme inhibition assay (Alphascreen kinase activity assay); assay type: biochemical; settings: 100 pM p38alpha, 250 μM ATP, 2 hours pre-incubation at 25° C., ATF-2 fusion protein substrate; read-out: p38α inhibition (IC50 values)
T1 construct: purchased Invitrogen PV3304
Method: P38alpha Enzyme Inhibition Assay.
The inhibitory activity of compounds was determined using an Alphascreen® (Perkin Elmer) based kinase activity assay. Kinase reactions consisted of 25 mM HEPES pH 7.5, 10 mM MgCl2, 100 μM Na3VO4, 2 mM DTT, 0.05 mg/ml Tween 20, 100 pM p38alpha (Invitrogen, PV3304), 1% DMSO and 0.3 μg/ml ATF-2 fusion protein (New England Biolabs, 9224). Compounds were incubated under these conditions for 2 hours, at 25° C., prior to the initiation of the kinase activity by the addition of the 250 μM ATP. Reaction volumes were 20 uL. After 1 hr at 25° C. reactions were stopped by the adding 10 uL of 25 mM HEPES pH 7.5 containing 62.5 mM EDTA, 0.05% Triton X-100, 10% BSA and 0.83 ng/uL anti-phospho-ATF2 antibody (Abeam, ab28812). Detection was performed by measuring luminescence following the addition of Alphascreen Donor beads (Perkin Elmer 6765300) and Protein A Alphascreen Acceptor beads (Perkin Elmer 6760137), both at a final concentration of 20 ug/ml. IC50 values were determined from concentration-response curves.

[1] = tested on: LPS-stimulated PBMC TNFα release; experiment: LPS-stimulated PBMC TNFα release assay; assay type: cell-based; settings: human PBMCs, LPS 10 ng/ml, 18 h, TNFα by ELISA, at least three separate experiments, read-out: p38α inhibition (IC50 values), inhibition of TNFα release
Method: LPS-Stimulated PBMC TNFα Release Assay.
Peripheral Blood Mononuclear Cells (PBMCs) were isolated from healthy human volunteer blood using a standard density gradient centrifugation technique. Citrated blood was placed onto Histopaque™ and centrifuged. The PBMCs were removed from the density gradient interface and washed in phosphate buffered saline (PBS). The PBMCs were suspended in RPMI 1640 medium (without serum), dispensed into a 96-well plate and incubated at 37° C. for 3 h in a humidified incubator. After incubation, the medium was replaced (with medium containing 1% foetal bovine serum), and the plate incubated at 37° C., for 1 h, in the presence of test compound or the appropriate vehicle. LPS (10 ng/ml), or an appropriate vehicle control, was then added to the cells, and the plate returned to the incubator for 18 h. Cell-free supernatants were removed and assayed for TNFα levels using an ELISA kit from R&D Systems.
A dose response curve to each test compound was performed and the effect of compound in each experiment was expressed as a percentage inhibition of the control TNFα release. Dose response curves were plotted and compound potency (IC50) was determined. Compounds were tested in at least three separate experiments.

T1 sequence (Q16539 whole entry, the tested form may be a part): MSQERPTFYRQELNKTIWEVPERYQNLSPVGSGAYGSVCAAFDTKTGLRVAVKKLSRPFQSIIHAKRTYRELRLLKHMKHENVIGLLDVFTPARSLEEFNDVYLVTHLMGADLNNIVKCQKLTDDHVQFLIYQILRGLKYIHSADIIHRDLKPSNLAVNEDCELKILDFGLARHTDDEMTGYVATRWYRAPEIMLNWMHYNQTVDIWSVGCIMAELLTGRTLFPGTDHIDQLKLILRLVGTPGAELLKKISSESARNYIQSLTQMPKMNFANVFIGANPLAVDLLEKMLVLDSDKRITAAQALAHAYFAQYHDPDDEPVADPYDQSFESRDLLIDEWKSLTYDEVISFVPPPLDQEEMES

| SMILES | IC50 (p38alpha) | IC50 [1] |
| --- | --- | --- |
| CC(C)(C)c1cc(NC(=O)N[C@H]2CC[C@@H](Oc3ccc4nnc(-c5ccccc5Cl)n4c3)c3ccccc32)n(CCN2CCOCC2)n1 [Example 32, 1-[5-tert-Butyl-2-(2-morpholin-4-yl-ethyl)-2H-pyrazol-3-yl]-3-{(1S,4R)-4-[3-(2-chloro-phenyl)-[1,2,4]triazolo[4,3-a]pyridin-6-yloxy]-1,2,3,4-tetrahydro-naphthalen-1-yl}-urea formate salt] | < 10 nM | < 10 nM |
| CN(C)CCn1nc(C(C)(C)C)cc1NC(=O)N[C@H]1CC[C@@H](Oc2ccc3nnc(-c4c(Cl)cccc4Cl)n3c2)c2ccccc21 [Example 28, 1-[5-tert-Butyl-2-(2-dimethylamino-ethyl)-2H-pyrazol-3-yl]-3-{(1S,4R)-4-[3-(2,6-dichloro-phenyl)-[1,2,4]triazolo[4,3-a]pyridin-6-yloxy]-1,2,3,4-tetrahydro-naphthalen-1-yl}-urea formate salt] | < 10 nM | < 10 nM |
| CC(C)c1nnc2ccc(O[C@@H]3CC[C@H](NC(=O)Nc4cc(C(C)(C)C)nn4-c4cccc(OCCN5CCC(O)CC5)c4)c4ccccc43)cn12 [Example 22, 1-(5-tert-Butyl-2-{3-[2-(4-hydroxy-piperidin-1-yl)-ethoxy]-phenyl}-2H-pyrazol-3-yl)-3-[(1S,4R)-4-(3-isopropyl-[1,2,4]triazolo[4,3-a]pyridin-6-yloxy)-1,2,3,4-tetrahydro-naphthalen-1-yl]-urea formate salt] | < 10 nM | 10 to 100 nM |
| CC(C)c1nnc2ccc(O[C@@H]3CC[C@H](NC(=O)Nc4cc(C(C)(C)C)nn4-c4ccc(CO)cc4)c4ccccc43)cn12 [Example 11, 1-[5-tert-Butyl-2-(4-hydroxymethyl-phenyl)-2H-pyrazol-3-yl]-3-[(1S,4R)-4-(3-isopropyl-[1,2,4]triazolo[4,3-a]pyridin-6-yloxy)-1,2,3,4-tetrahydro-naphthalen-1-yl]-urea] | < 10 nM | < 10 nM |
| Cn1nc(C(C)(C)C)cc1NC(=O)N[C@H]1CC[C@@H](Oc2ccc3nnc(-c4c(Cl)cccc4Cl)n3c2)c2ccccc21 [Example 33, 1-(5-tert-Butyl-2-methyl-2H-pyrazol-3-yl)-3-{(1S,4R)-4-[3-(2,6-dichlorophenyl)-[1,2,4]triazolo[4,3-a]pyridin-6-yloxy]-1,2,3,4-tetrahydronaphthalen-1-yl]-urea] | < 10 nM | < 10 nM |
| CC(C)(C)c1cc(NC(=O)N[C@H]2CC[C@@H](Oc3ccc4nnc(-c5c(Cl)cccc5Cl)n4c3)c3ccccc32)n(CCN2CCCCC2)n1 [Example 29, 1-[5-tert-Butyl-2-(2-piperidin-1-yl-ethyl)-2H-pyrazol-3-yl]-3-{(1S,4R)-4-[3-(2,6-dichloro-phenyl)-[1,2,4]triazolo[4,3-a]pyridin-6-yloxy]-1,2,3,4-tetrahydro-naphthalen-1-yl}-urea formate salt] | < 10 nM | < 10 nM |
| CC(C)c1nnc2ccc(O[C@@H]3CC[C@H](NC(=O)Nc4cc(C(C)(C)C)nn4C4CCN(C)CC4)c4ccccc43)cn12 [Example 17, 1-[5-tert-Butyl-2-(1-methyl-piperidin-4-yl)-2H-pyrazol-3-yl]-3-[(1S,4R)-4-(3-isopropyl-[1,2,4]triazolo[4,3-a]pyridin-6-yloxy)-1,2,3,4-tetrahydro-naphthalen-1-yl]-urea] | < 10 nM | 100 to 1000 nM |
| CC(C)c1nnc2ccc(O[C@@H]3CC[C@H](NC(=O)Nc4cc(C(C)(C)C)nn4C)c4ccccc43)cn12 [Example 2, 1-(5-tert-Butyl-2-methyl-2H-pyrazol-3-yl)-3-[(1S,4R)-4-(3-isopropyl-[1,2,4]triazolo[4,3-a]pyridin-6-yloxy)-1,2,3,4-tetrahydro-naphthalen-1-yl]-urea] | < 10 nM | < 10 nM |
| CC(C)(C)c1cc(NC(=O)N[C@H]2CC[C@@H](Oc3ccc4nnc(C5CCCCC5)n4c3)c3ccccc32)n(CCN2CCOCC2)n1 [Example 34, 1-[5-tert-Butyl-2-(2-morpholin-4-yl-ethyl)-2H-pyrazol-3-yl]-3-[(1S,4R)-4-(3-cyclohexyl-[1,2,4]triazolo[4,3-a]pyridin-6-yloxy)-1,2,3,4-tetrahydro-naphthalen-1-yl]-urea partial formate salt] | < 10 nM | < 10 nM |
| CC(C)c1nnc2ccc(O[C@@H]3CC[C@H](NC(=O)Nc4cc(C(C)(C)C)nn4-c4cccc(SCCO)c4)c4ccccc43)cn12 [Example 3, 1-{5-tert-Butyl-2-[3-(2-hydroxyethylsulfanyl)-phenyl]-2H-pyrazol-3-yl}-3-[(1S,4R)-4-(3-isopropyl-[1,2,4]triazolo[4,3-a]pyridin-6-yloxy)-1,2,3,4-tetrahydro-naphthalen-1-yl]-urea] | < 10 nM | < 10 nM |
| CC(C)(C)c1cc(NC(=O)N[C@H]2CC[C@@H](Oc3ccc4nnc(-c5c(Cl)cccc5Cl)n4c3)c3ccccc32)n(CCO)n1 [Example 26, 1-[5-tert-Butyl-2-(2-hydroxy-ethyl)-2H-pyrazol-3-yl]-3-{(1S,4R)-4-[3-(2,6-dichloro-phenyl)-[1,2,4]triazolo[4,3-a]pyridin-6-yloxy]-1,2,3,4-tetrahydro-naphthalen-1-yl}-urea] | < 10 nM | < 10 nM |
| CC(C)c1nnc2ccc(O[C@@H]3CC[C@H](NC(=O)Nc4cc(C(C)(C)C)nn4-c4cccc(CN5CCC(F)(F)CC5)c4)c4ccccc43)cn12 [Example 12, 1-{5-tert-Butyl-2-[3-(4,4-difluoro-piperidin-1-ylmethyl)-phenyl]-2H-pyrazol-3-yl}-3-[(1S,4R)-4-(3-isopropyl-[1,2,4]triazolo[4,3-a]pyridin-6-yloxy)-1,2,3,4-tetrahydro-naphthalen-1-yl]-urea] | < 10 nM | 10 to 100 nM |
| CN1CCN(CCn2nc(C(C)(C)C)cc2NC(=O)N[C@H]2CC[C@@H](Oc3ccc4nnc(-c5c(Cl)cccc5Cl)n4c3)c3ccccc32)CC1 [Example 30, 1-{5-tert-Butyl-2-[2-(4-methyl-piperazin-1-yl)-ethyl]-2H-pyrazol-3-yl}-3-{(1S,4R)-4-[3-(2,6-dichloro-phenyl)-[1,2,4]triazolo[4,3-a]pyridin-6-yloxy]-1,2,3,4-tetrahydro-naphthalen-1-yl}-urea formate salt] | < 10 nM | < 10 nM |
| CC(C)c1nnc2ccc(O[C@H]3CC[C@H](NC(=O)Nc4cc(C(C)(C)C)nn4-c4ccc(C#N)cc4)c4ccccc43)cn12 [Example 14, 1-[5-tert-Butyl-2-(4-cyano-phenyl)-2H-pyrazol-3-yl]-3-[(1S,4S)-4-(3-isopropyl-[1,2,4]triazolo[4,3-a]pyridin-6-yloxy)-1,2,3,4-tetrahydro-naphthalen-1-yl]-urea] | 10 to 100 nM | < 10 nM |
| COc1ccc(-n2nc(C(C)(C)C)cc2NC(=O)N[C@H]2CC[C@@H](Oc3ccc4nnc(C(C)C)n4c3)c3ccccc32)cc1 [Example 1, 1-(5-tert-Butyl-2-(4-methoxy-phenyl)-2H-pyrazol-3-yl)-3-[(1S,4R)-4-(3-isopropyl-[1,2,4]triazolo[4,3-a]pyridin-6-yloxy)-1,2,3,4-tetrahydro-naphthalen-1-yl]-urea] | < 10 nM | < 10 nM |
| CC(C)c1nnc2ccc(O[C@H]3CC[C@H](NC(=O)Nc4cc(C(C)(C)C)nn4-c4ccc(CO)cc4)c4ccccc43)cn12 [Example 15, 1-[5-tert-Butyl-2-(4-hydroxymethyl-phenyl)-2H-pyrazol-3-yl]-3-[(1S,4S)-4-(3-isopropyl-[1,2,4]triazolo[4,3-a]pyridin-6-yloxy)-1,2,3,4-tetrahydro-naphthalen-1-yl]-urea] | < 10 nM | < 10 nM |
